The results in this text go back to ChEMBL document CHEMBL1135585, “Mixed steroidal 1,2,4,5-tetraoxanes: antimalarial and antimycobacterial activity” (J Med Chem, 2002).

Several values for one entry are separate records, joined by “and”; a condition that tells them apart may be missing. Identical values can stand only once.

Assay [1] relates to Plasmodium falciparum. As to the kind of experiment: microbe, parasite or virus in culture.
Description: (§1) In vitro inhibitory activity against chloroquine-resistant Plasmodium falciparum W2 Indochina
Assay [2] concerns Plasmodium falciparum. As to the kind of experiment: microbe, parasite or virus in culture. This is another data set of the same source.
Description: (§2) In vitro inhibitory activity against chloroquine-sensitive Plasmodium falciparum African D6
Assay [3] has as its system Mycobacterium tuberculosis. The experiment in a line: In vitro anti-mycobacterial activity against Mycobacterium tuberculosis strain H37Rv. Type of assay: functional.
For assay [4], the system named is Mycobacterium tuberculosis. As to the kind of experiment: In vitro inhibitory activity against Mycobacterium tuberculosis strain H37Rv at a concentration of 6.25 ug/mL. Type of assay: functional.
Assay [5] has as its system Plasmodium falciparum.
Description: as §2
Assay [6] has as its system Plasmodium falciparum. This is another data set of the same source.
Description: as §1
Another assay relates to Vero. The experiment in a line: In vitro cytotoxicity against VERO cell line. The class given is functional, cell-based. As to conditions: Chlorocebus sabaeus.

As to `COC(=O)CCC(C)C1CC[C@H]2[C@@H]3[C@H](OC(C)=O)C[C@@H]4CC5(CC[C@]4(C)[C@H]3C[C@H](OC(C)=O)[C@]12C)OOC1(CCCCC1C)OO5` (stereo partly drawn), the IC50 was found to be 15.6 nM with Plasmodium falciparum [1] and 27 nM with Plasmodium falciparum [2].
For `CC(=O)O[C@H]1C[C@H]2[C@@H]([C@H](OC(C)=O)C[C@@H]3CC4(CC[C@@]32C)OOC2(CCCCC2C)OO4)[C@@H]2CCC(C(C)CCC(N)=O)[C@@]12C` (stereo partly drawn), in that order: 11.1 nM and 17.3 nM.
In the case of `CCCNC(=O)CCC(C)C1CC[C@H]2[C@@H]3[C@H](OC(C)=O)C[C@@H]4CC5(CC[C@]4(C)[C@H]3C[C@H](OC(C)=O)[C@]12C)OOC1(CCCCC1C)OO5` (stereo partly drawn), the half-maximal inhibitory concentration (IC50) in the assay on Plasmodium falciparum [1] was found to be 9.29 nM; in the assay on Plasmodium falciparum [2], 13.2 nM.
`CC(=O)O[C@H]1C[C@H]2[C@@H]([C@H](OC(C)=O)C[C@@H]3CC4(CC[C@@]32C)OOC2(CCCCC2C)OO4)[C@@H]2CCC(C(C)CCC(=O)O)[C@@]12C` (stereo partly drawn): the IC50 in the assay on Plasmodium falciparum [1] is 37.5 nM; in the assay on Plasmodium falciparum [2], 67.6 nM.
For `COC(=O)CCC(C)C1CC[C@H]2[C@@H]3[C@H](OC(C)=O)C[C@@H]4CC5(CC[C@]4(C)[C@H]3C[C@H](OC(C)=O)[C@]12C)OOC1(CCCCCCC1)OO5` (stereo partly drawn), in that order: 20 nM and 48.4 nM.
As for `CC(=O)O[C@H]1C[C@H]2[C@@H]([C@H](OC(C)=O)C[C@@H]3CC4(CC[C@@]32C)OOC2(CCCCC2)OO4)[C@@H]2CCC(C(C)CCC(=O)O)[C@@]12C` (stereo partly drawn), the values for the IC50 in the assay on Plasmodium falciparum [1] and with Plasmodium falciparum [2] were 19.2 nM and 11.8 nM, respectively.
For `COC(=O)CNC(=O)CCC(C)C1CC[C@H]2[C@@H]3[C@H](OC(C)=O)C[C@@H]4CC5(CC[C@]4(C)[C@H]3C[C@H](OC(C)=O)[C@]12C)OOC1(CCCCC1)OO5` (stereo partly drawn), the IC50 stood at 10.8 nM in the assay with Plasmodium falciparum [1] and 22 nM with Plasmodium falciparum [2].
As to `COC(=O)CCC(C)C1CC[C@H]2[C@@H]3[C@H](OC(C)=O)C[C@@H]4CC5(CC[C@]4(C)[C@H]3C[C@H](OC(C)=O)[C@]12C)OOC1(CCCC1)OO5` (stereo partly drawn), the IC50 with Plasmodium falciparum [1] was found to be 27.7 nM; in the assay with Plasmodium falciparum [2], 39.1 nM.
For `CCCNC(=O)CCC(C)C1CC[C@H]2[C@@H]3[C@H](OC(C)=O)C[C@@H]4CC5(CC[C@]4(C)[C@H]3C[C@H](OC(C)=O)[C@]12C)OOC1(CCCCC1)OO5` (stereo partly drawn), in that order: 6.8 nM and 14.8 nM.
For the molecule `CC(=O)O[C@H]1C[C@H]2[C@@H]([C@H](OC(C)=O)C[C@@H]3CC4(CC[C@@]32C)OOC2(CCCCC2)OO4)[C@@H]2CCC(C(C)CCC(N)=O)[C@@]12C` (stereo partly drawn), the IC50 came to 4.74 nM in the assay on Plasmodium falciparum [1] and 11.8 nM in the assay with Plasmodium falciparum [2].
On the same counts, the results for `CCNC(=O)CCC(C)C1CC[C@H]2[C@@H]3[C@H](OC(C)=O)C[C@@H]4CC5(CC[C@]4(C)[C@H]3C[C@H](OC(C)=O)[C@]12C)OOC1(CCC(CC)CC1)OO5` (mixture of isomers; 22) are 9.56 nM and 19.8 nM.
For the molecule `COC(=O)CCC(C)C1CC[C@H]2[C@@H]3[C@H](OC(C)=O)C[C@@H]4CC5(CC[C@]4(C)[C@H]3C[C@H](OC(C)=O)[C@]12C)OOC1(CCC(C)CC1)OO5` (stereo in doubt; 3g), the MIC in assay [3] is > 6.25 µg/mL and > 9.63 µM. In assay [4], 6.25 µg/mL produced 29% inhibition. The results for the IC50 in the assay with Plasmodium falciparum [5] and in the assay with Plasmodium falciparum [6] were 9.99 nM and 5.05 nM, respectively.
For `CC(=O)O[C@H]1C[C@H]2[C@@H]([C@H](OC(C)=O)C[C@@H]3CC4(CC[C@@]32C)OOC2(CCC(C)CC2)OO4)[C@@H]2CCC(C(C)CCC(=O)O)[C@@]12C` (stereo in doubt; 4g), the MIC in assay [3] is > 6.25 µg/mL and > 9.84 µM. Further, in assay [4], the inhibition at 6.25 µg/mL is 21%. For the same molecule, the IC50 was 1.53 nM with Plasmodium falciparum [5] and 0.98 nM with Plasmodium falciparum [6].
As to `CCC1CCC2(CC1)OOC1(CC[C@@]3(C)[C@H](C[C@@H](OC(C)=O)[C@@H]4[C@@H]3C[C@H](OC(C)=O)[C@]3(C)C(C(C)CCC(=O)O)CC[C@@H]43)C1)OO2` (stereo in doubt; 4i), the IC50 was determined as 7.26 nM in the assay with Plasmodium falciparum [1] and 5.76 nM in the assay on Plasmodium falciparum [2].
`CC(=O)O[C@H]1C[C@H]2[C@@H]([C@H](OC(C)=O)C[C@@H]3CC4(CC[C@@]32C)OOC2(CCC(C)CC2)OO4)[C@@H]2CCC(C(C)CCC(N)=O)[C@@]12C` (stereo in doubt; 12): the IC50 was 3.49 µg/mL and 5.51 µM with Vero; 1.17 nM in the assay with Plasmodium falciparum [5]; 0.58 nM in the assay with Plasmodium falciparum [6]. Moreover, the minimal inhibitory concentration (MIC) in assay [3] is 3.13 µg/mL and 4.94 µM. Testing at 6.25 µg/mL in assay [4] gave an inhibition of 99%.
Regarding `CNC(=O)CCC(C)C1CC[C@H]2[C@@H]3[C@H](OC(C)=O)C[C@@H]4CC5(CC[C@]4(C)[C@H]3C[C@H](OC(C)=O)[C@]12C)OOC1(CCC(C)CC1)OO5` (stereo in doubt; 13), the IC50 in the assay with Vero is 5.69 µg/mL and 8.78 µM; in the assay with Plasmodium falciparum [5], 5.96 nM; in the assay on Plasmodium falciparum [6] it was 3.61 nM. Besides, the MIC in assay [3] is 6.25 µg/mL and 9.65 µM. In assay [4], the inhibition at 6.25 µg/mL was 98%.
Consider `CCNC(=O)CCC(C)C1CC[C@H]2[C@@H]3[C@H](OC(C)=O)C[C@@H]4CC5(CC[C@]4(C)[C@H]3C[C@H](OC(C)=O)[C@]12C)OOC1(CCC(C)CC1)OO5` (stereo in doubt; 14), for which the IC50 in the assay with Vero is 5.37 µg/mL and 8.11 µM; with Plasmodium falciparum [5], 5.8 nM; with Plasmodium falciparum [6], 3.93 nM. Moreover, in assay [3], the MIC is 3.13 µg/mL and 4.73 µM. Also, testing at 6.25 µg/mL in assay [4] gave an inhibition of 98%.
Turning to `CCCNC(=O)CCC(C)C1CC[C@H]2[C@@H]3[C@H](OC(C)=O)C[C@@H]4CC5(CC[C@]4(C)[C@H]3C[C@H](OC(C)=O)[C@]12C)OOC1(CCC(C)CC1)OO5` (stereo in doubt; 15), the IC50 in the assay with Vero was 8.34 µg/mL and 12.3 µM; in the assay with Plasmodium falciparum [5] it was 3.22 nM; in the assay on Plasmodium falciparum [6], 3.82 nM. The MIC in assay [3] is 6.25 µg/mL and 9.25 µM. Also, the inhibition at 6.25 µg/mL in assay [4] was found to be 94%.
As for `C[C@@H]1CC[C@H]2[C@@H](C)C(=O)O[C@@H]3O[C@@]4(C)CC[C@@H]1[C@]32OO4` [ARTEMISININ], the IC50 turned out to be 7.3 nM in the assay on Plasmodium falciparum [1] and 8.4 nM in the assay on Plasmodium falciparum [2].
For `NNC(=O)c1ccncc1` [ISONIAZID], in the assay on Vero, the IC50 was > 1000 µg/mL and > 7 mM. For the same molecule, the MIC in assay [3] was 0.05 µg/mL and 0.36 µM.
With `CO[C@H]1/C=C/O[C@@]2(C)Oc3c(C)c(O)c4c(O)c(c(/C=N/N5CCN(C)CC5)c(O)c4c3C2=O)NC(=O)/C(C)=C\C=C\[C@H](C)[C@H](O)[C@@H](C)[C@@H](O)[C@@H](C)[C@H](OC(C)=O)[C@@H]1C` [RIFAMPIN], in the assay on Vero, the IC50 is 111 µg/mL and 134 µM. Besides, the MIC in assay [3] is 0.12 µg/mL and 0.15 µM.

In general, IC50 refers to the concentration that gives 50% inhibition. As usually defined, the MIC is the least concentration at which growth counts as inhibited. Read a low MIC as greater potency. For orientation: inhibition means the drop in the measured response relative to a control, in per cent. A low value points to a response near the control.
